The nature of the data set: Toxicity in Artemia salina. The data set is classed as organism-based. The following applies: in vivo, read-out: LD50 (the source's name).

≈ marks a conversion by molar mass, not a printed value.

In the case of `CC(=O)OC[C@@H](C)C1=C(O)C(=O)[C@@]2(C)C/C=C(\C)CC/C=C(\C)CC[C@H](O)/C(C)=C/C[C@H]12` [FUSAPROLIFERIN], the LC50 was found to be 0.4 µg/mL (≈ 0.9 µM).

For the origin of these results see ChEMBL document CHEMBL1151676, “Structure and absolute stereochemistry of fusaproliferin, a toxic metabolite from Fusarium proliferatum” (J Nat Prod, 1996).
